From patent publication US20260092071A1, “COMPOUNDS AND COMPOSITIONS AS SMARCA2/4 DEGRADERS AND USES THEREOF” (REGENTS OF THE UNIVERSITY OF MICHIGAN, priority 2022, published 2026) come the findings set out here.

Structures are written as SMILES.

One assay deals with SMARCA4 (Homo sapiens, UniProt P51532). Briefly: HiBit assay in engineered HT1080 CRISPR knock-in cell, 6 hrs (B series), SMARCA4. It is filed as cell-based. The conditions noted are these: 6 hrs incubation; for DC50: HT1080 CRISPR knock-in cells, read-out: SMARC A4 HT1080 HiBit DC50; for Dmax: HT-1080, HT1080 CRISPR knock-in cells, read-out: SMARC A4 HT1080 HiBit Dmax(%). The method in brief: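 Using a 6 hr treatment window at 37° C and 5% CO2, tagged HT1080 knock-in cells were exposed to test compounds with DMSO vehicle held at 0.1%. Signal came from lytic LgBiT/substrate reagent added after incubation, with control wells lacking LgBiT, and was read as luminescence.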
(In general: With HiBiT, luminescence reflects the tagged protein that the partner subunit can reach.)

The next assay has as its target SMARCA2 (Homo sapiens, UniProt P51531). Briefly: HiBit assay in engineered HT1080 CRISPR knock-in cell, 6 hrs (B series), SMARCA2. It is filed as cell-based. The conditions noted are these: 6 hrs incubation; for DC50: HT1080 CRISPR knock-in cells, read-out: SMARC A2 HT1080 HiBit DC50; for Dmax: HT-1080, HT1080 CRISPR knock-in cells, read-out: SMARC A2 HT1080 HiBit Dmax (%). The procedure, abridged:
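Remaining SMARCA2 protein measured as HiBiT luminescence after cell lysis with LgBiT plus lytic substrate. Engineered HT1080 knock-in cells (2000/well) were first treated 6 h at 37 °C with compound at a final 0.1% DMSO.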

Chain of SMARCA4 (P51532 whole entry): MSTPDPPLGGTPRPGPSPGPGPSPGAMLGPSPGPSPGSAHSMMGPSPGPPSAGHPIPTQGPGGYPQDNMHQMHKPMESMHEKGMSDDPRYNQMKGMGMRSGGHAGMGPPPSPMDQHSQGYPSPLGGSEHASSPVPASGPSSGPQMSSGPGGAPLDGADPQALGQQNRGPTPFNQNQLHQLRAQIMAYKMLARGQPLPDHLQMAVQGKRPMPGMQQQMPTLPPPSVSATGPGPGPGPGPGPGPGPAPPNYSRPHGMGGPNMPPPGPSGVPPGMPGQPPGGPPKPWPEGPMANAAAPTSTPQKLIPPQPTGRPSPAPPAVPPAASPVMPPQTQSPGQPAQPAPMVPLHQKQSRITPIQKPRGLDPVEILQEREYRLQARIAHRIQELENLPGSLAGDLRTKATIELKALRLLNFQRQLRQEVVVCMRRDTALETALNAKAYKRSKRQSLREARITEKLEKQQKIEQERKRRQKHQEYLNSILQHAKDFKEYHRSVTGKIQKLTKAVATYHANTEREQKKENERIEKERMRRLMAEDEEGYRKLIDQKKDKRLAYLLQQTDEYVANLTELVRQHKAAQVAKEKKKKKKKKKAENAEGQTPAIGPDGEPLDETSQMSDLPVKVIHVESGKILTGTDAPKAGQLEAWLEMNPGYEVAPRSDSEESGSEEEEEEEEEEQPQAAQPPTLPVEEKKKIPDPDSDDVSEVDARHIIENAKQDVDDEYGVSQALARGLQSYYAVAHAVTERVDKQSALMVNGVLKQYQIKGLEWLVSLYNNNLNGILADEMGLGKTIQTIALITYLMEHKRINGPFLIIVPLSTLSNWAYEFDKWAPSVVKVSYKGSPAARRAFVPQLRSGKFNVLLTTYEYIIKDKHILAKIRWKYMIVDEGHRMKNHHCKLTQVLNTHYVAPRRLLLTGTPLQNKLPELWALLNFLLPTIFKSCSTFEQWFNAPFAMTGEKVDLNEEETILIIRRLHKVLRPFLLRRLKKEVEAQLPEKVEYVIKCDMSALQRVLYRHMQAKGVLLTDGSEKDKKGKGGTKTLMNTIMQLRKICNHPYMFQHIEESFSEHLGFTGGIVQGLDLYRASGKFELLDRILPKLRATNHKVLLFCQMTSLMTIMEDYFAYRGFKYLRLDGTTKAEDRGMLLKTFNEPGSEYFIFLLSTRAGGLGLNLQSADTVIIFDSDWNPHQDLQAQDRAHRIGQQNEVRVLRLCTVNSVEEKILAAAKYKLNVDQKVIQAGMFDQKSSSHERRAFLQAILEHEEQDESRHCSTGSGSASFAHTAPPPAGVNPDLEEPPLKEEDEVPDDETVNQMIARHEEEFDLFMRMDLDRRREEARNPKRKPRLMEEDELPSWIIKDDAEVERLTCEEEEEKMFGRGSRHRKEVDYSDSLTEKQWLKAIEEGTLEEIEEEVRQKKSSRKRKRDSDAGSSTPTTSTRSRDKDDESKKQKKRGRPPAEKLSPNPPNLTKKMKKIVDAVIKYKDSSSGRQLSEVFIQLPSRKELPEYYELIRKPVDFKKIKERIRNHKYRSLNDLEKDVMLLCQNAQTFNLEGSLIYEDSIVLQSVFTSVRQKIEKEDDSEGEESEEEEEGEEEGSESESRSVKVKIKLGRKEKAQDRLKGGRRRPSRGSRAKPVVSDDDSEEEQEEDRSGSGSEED
Chain of SMARCA2 (P51531 whole entry): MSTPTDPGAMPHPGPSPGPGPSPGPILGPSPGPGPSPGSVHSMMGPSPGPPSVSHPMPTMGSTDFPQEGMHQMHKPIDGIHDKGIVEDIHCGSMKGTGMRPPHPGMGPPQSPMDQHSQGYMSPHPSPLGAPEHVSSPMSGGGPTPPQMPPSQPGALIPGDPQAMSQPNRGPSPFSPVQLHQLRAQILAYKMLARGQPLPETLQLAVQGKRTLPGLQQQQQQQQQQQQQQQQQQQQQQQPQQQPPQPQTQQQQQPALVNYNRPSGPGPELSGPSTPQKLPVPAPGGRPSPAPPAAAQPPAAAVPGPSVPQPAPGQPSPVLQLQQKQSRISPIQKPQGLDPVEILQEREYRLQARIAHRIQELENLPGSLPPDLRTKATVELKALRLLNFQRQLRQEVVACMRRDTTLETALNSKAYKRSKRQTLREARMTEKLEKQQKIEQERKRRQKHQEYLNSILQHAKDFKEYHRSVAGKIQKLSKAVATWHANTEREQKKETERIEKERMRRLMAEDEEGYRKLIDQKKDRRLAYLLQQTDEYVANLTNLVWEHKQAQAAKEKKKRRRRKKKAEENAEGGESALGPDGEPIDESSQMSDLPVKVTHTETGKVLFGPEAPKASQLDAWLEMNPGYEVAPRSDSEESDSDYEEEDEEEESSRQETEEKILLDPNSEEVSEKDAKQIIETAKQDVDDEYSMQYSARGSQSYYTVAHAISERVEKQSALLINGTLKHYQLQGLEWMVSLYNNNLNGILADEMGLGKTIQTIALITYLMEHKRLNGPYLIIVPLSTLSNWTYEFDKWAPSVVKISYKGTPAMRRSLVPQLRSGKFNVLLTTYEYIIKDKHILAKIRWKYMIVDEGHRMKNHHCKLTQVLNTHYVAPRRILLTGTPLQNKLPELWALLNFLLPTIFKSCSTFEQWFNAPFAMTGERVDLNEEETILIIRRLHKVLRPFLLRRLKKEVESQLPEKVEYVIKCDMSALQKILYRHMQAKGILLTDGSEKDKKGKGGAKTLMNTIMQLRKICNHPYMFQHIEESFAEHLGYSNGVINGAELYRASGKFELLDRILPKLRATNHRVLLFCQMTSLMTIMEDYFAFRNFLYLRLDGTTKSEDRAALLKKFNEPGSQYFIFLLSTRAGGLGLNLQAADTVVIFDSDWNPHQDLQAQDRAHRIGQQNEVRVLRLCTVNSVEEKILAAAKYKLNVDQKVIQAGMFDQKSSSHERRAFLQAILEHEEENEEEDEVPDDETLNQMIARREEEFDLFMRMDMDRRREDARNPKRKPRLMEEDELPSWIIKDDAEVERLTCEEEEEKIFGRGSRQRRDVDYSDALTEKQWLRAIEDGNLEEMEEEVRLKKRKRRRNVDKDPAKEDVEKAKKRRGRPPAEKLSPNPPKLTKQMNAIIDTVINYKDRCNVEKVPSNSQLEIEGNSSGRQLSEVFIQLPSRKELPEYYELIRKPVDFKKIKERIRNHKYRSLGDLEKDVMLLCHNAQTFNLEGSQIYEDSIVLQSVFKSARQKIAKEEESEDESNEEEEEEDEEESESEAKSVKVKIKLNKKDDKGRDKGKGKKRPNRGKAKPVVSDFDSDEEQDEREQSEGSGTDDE

Take `CNC(=O)[C@@H]1C[C@@H](O)CN1C(=O)[C@H](C(C)C)n1cc([C@H]2CC[C@H](CN3CCC(c4ccc5c(c4)-n4c(nc(=O)c6c(Cl)cccc64)C5(C)C)CC3)CC2)nn1` [Compound B59, (2S,4R)-1-((S)-2-(4-((1r,4S)-4-((4-(4-chloro-7,7-dimethyl-5-oxo-5,7-dihydroindolo[1,2-a]quinazolin-10-yl)piperidin-1-yl)methyl)cyclohexyl)-1H-1,2,3-triazol-1-yl)-3-methylbutanoyl)-4-hydroxy-N-methylpyrrolidine-2-carboxamide]: on SMARCA4, the DC50 is greater than 1000 nM and the Dmax was less than 50%. In addition, on SMARCA2, the DC50 lay within 100 to 500 nM and the Dmax was in the range of 50 to 69%.
As to `Cc1ncsc1-c1ccc([C@H](C)NC(=O)[C@@H]2C[C@@H](O)CN2C(=O)[C@@H](NC(=O)[C@H]2CC[C@H](CN3CCC(c4ccc5c(c4)-n4c(nc(=O)c6c(Br)cccc64)C5(C)C)CC3)CC2)C(C)(C)C)cc1` [Compound B70, (2S,4R)-1-((S)-2-((11,4S)-4-((4-(4-bromo-7,7-dimethyl-5-oxo-5,7-dihydroindolo[1,2-a]quinazolin-10-yl)piperidin-1-yl)methyl)cyclohexane-1-carboxamido)-3,3-dimethylbutanoyl)-4-hydroxy-N-((S)-1-(4-(4-methylthiazol-5-yl)phenyl)ethyl)pyrrolidine-2-carboxamide], the DC50 on SMARCA4 and at SMARCA2 was less than 100 nM each time. Moreover, the Dmax at SMARCA4 was less than 50%; on SMARCA2 it was greater than 90%.
On to `Cc1ncsc1-c1ccc([C@H](CCCCCn2cc(-c3ccc4c(c3)-n3c(nc(=O)c5c(Cl)cccc53)C4(C)C)cn2)NC(=O)[C@@H]2C[C@@H](O)CN2C(=O)[C@@H](NC(=O)C2(F)CC2)C(C)(C)C)cc1` [Compound B46, (2S,4R)-N-((S)-6-(4-(4-chloro-7,7-dimethyl-5-oxo-5,7-dihydroindolo[1,2-a]quinazolin-10-yl)-1H-pyrazol-1-yl)-1-(4-(4-methylthiazol-5-yl)phenyl)hexyl)-1-((S)-2-(1-fluorocyclopropane-1-carboxamido)-3,3-dimethylbutanoyl)-4-hydroxypyrrolidine-2-carboxamide], for which, at SMARCA4, the DC50 is less than 100 nM and the Dmax was in the range of 70 to 90%. For the same compound, on SMARCA2, the DC50 was less than 100 nM and the Dmax was 70 to 90%.
Turning to `Cc1ncsc1-c1ccc([C@H](C)NC(=O)[C@@H]2C[C@@H](O)CN2C(=O)[C@@H](c2cc(N3CCC(CN4CCC(c5ccc6c(c5)-n5c(nc(=O)c7c(Cl)cccc75)C6(C)C)CC4)CC3)no2)C(C)C)cc1` [Compound B37, (2S,4R)-1-((R)-2-(3-(4-((4-(4-chloro-7,7-dimethyl-5-oxo-5,7-dihydroindolo[1,2-a]quinazolin-10-yl)piperidin-1-yl)methyl)piperidin-1-yl)isoxazol-5-yl)-3-methylbutanoyl)-4-hydroxy-N-((S)-1-(4-(4-methylthiazol-5-yl)phenyl)ethyl)pyrrolidine-2-carboxamide], at SMARCA4, the DC50 was less than 100 nM and the Dmax was in the range of 70 to 90%. In addition, on SMARCA2, the DC50 was less than 100 nM and the Dmax was greater than 90%.
As to `C=C[C@H](NC(=O)[C@@H]1C[C@@H](O)CN1C(=O)[C@@H](NC(=O)[C@H]1CC[C@H](CN2CCC(c3ccc4c(c3)C(C)(C)c3nc(=O)c5c(Cl)cccc5n3-4)CC2)CC1)C(C)(C)C)c1ccc(-c2scnc2C)cc1` [Compound B79, (2S,4R)-1-((S)-2-((11,4S)-4-((4-(4-chloro-7,7-dimethyl-5-oxo-5,7-dihydroindolo[1,2-a]quinazolin-9-yl)piperidin-1-yl)methyl)cyclohexane-1-carboxamido)-3,3-dimethylbutanoyl)-4-hydroxy-N-((S)-1-(4-(4-methylthiazol-5-yl)phenyl)allyl)pyrrolidine-2-carboxamide], the DC50 at SMARCA4 is 100 to 500 nM; on SMARCA2 it was less than 100 nM. The Dmax at SMARCA4 is less than 50%; on SMARCA2, 70 to 90%.
Consider `Cc1ncsc1-c1ccc([C@H](C)NC(=O)[C@@H]2C[C@@H](O)CN2C(=O)[C@@H](c2cc(OCC3(CN4CCC(c5ccc6c(c5)-n5c(nc(=O)c7c(Cl)cccc75)C6(C)C)CC4)CC3)no2)C(C)C)cc1` [Compound B91, (2S,4R)-1-((R)-2-(3-((1-((4-(4-chloro-7,7-dimethyl-5-oxo-5,7-dihydroindolo[1,2-a]quinazolin-10-yl)piperidin-1-yl)methyl)cyclopropyl)methoxy)isoxazol-5-yl)-3-methylbutanoyl)-4-hydroxy-N-((S)-1-(4-(4-methylthiazol-5-yl)phenyl)ethyl)pyrrolidine-2-carboxamide], for which, at SMARCA4, the DC50 was less than 100 nM and the Dmax is greater than 90%. Also, at SMARCA2, the DC50 was less than 100 nM and the Dmax was greater than 90%.
`Cc1ncsc1-c1ccc([C@H](CN2CCOCC2)NC(=O)[C@@H]2C[C@@H](O)CN2C(=O)[C@H](c2cc(N3CCC(c4ccc5c(c4)C(C)(C)c4nc(=O)c6c(Cl)cccc6n4-5)CC3)no2)C(C)C)cc1` [Compound B109, (2S,4R)-1-(2-(3-(4-(4-chloro-7,7-dimethyl-5-oxo-5,7-dihydroindolo[1,2-a]quinazolin-9-yl)piperidin-1-yl)isoxazol-5-yl)-3-methylbutanoyl)-4-hydroxy-N—((R)-1-(4-(4-methylthiazol-5-yl)phenyl)-2-morpholinoethyl)pyrrolidine-2-carboxamide]: on SMARCA4, the DC50 is 100 to 500 nM and the Dmax lay in the range of 50 to 69%. On SMARCA2, the DC50 was less than 100 nM and the Dmax is greater than 90%.
For the compound `Cc1ncsc1-c1ccc([C@H](C)NC(=O)[C@@H]2C[C@@H](O)CN2C(=O)[C@H](C(C)C)n2cc(C3CCC(CN4CCC(c5ccc6c(c5)C(C)(C)c5nc(=O)c7c(Cl)cccc7n5-6)CC4)CC3)nn2)cc1` (stereo partly drawn) [Compound B19, (2S,4R)-1-((S)-2-(4-(4-((4-(4-chloro-7,7-dimethyl-5-oxo-5,7-dihydroindolo[1,2-a]quinazolin-9-yl)piperidin-1-yl)methyl)cyclohexyl)-1H-1,2,3-triazol-1-yl)-3-methylbutanoyl)-4-hydroxy-N-((S)-1-(4-(4-methylthiazol-5-yl)phenyl)ethyl)pyrrolidine-2-carboxamide], on SMARCA4, the DC50 is 100 to 500 nM and the Dmax fell in the range of 70 to 90%. At SMARCA2, the DC50 is less than 100 nM and the Dmax was greater than 90%.
Regarding `CC(C)C(C(=O)N1C[C@H](O)C[C@H]1C(=O)N[C@@H](C)c1ccc(-c2ncnn2C)cc1)c1cc(OCCN2CCC(c3ccc4c(c3)C(C)(C)c3nc(=O)c5c(Cl)cccc5n3-4)CC2)no1` (stereo partly drawn) [Compound B74, (2S,4R)-1-(2-(3-(2-(4-(4-chloro-7,7-dimethyl-5-oxo-5,7-dihydroindolo[1,2-a]quinazolin-9-yl)piperidin-1-yl)ethoxy)isoxazol-5-yl)-3-methylbutanoyl)-4-hydroxy-N-((S)-1-(4-(1-methyl-1H-1,2,4-triazol-5-yl)phenyl)ethyl)pyrrolidine-2-carboxamide], on SMARCA4, the DC50 is greater than 1000 nM and the Dmax was less than 50%. At SMARCA2, the DC50 was in the range of 100 to 500 nM and the Dmax is less than 50%.
On to `Cc1ncsc1-c1ccc([C@H](C)NC(=O)[C@@H]2C[C@@H](O)CN2C(=O)[C@@H](c2cc(OCCCn3cc(-c4ccc5c(c4)C(C)(C)c4nc(=O)c6c(Cl)cccc6n4-5)cn3)no2)C(C)C)cc1` [Compound B71, (2S,4R)-1-((R)-2-(3-(3-(4-(4-chloro-7,7-dimethyl-5-oxo-5,7-dihydroindolo[1,2-a]quinazolin-9-yl)-1H-pyrazol-1-yl)propoxy)isoxazol-5-yl)-3-methylbutanoyl)-4-hydroxy-N-((S)-1-(4-(4-methylthiazol-5-yl)phenyl)ethyl)pyrrolidine-2-carboxamide], for which, on SMARCA4, the DC50 is greater than 1000 nM and the Dmax was less than 50%. At SMARCA2, the DC50 lay within 100 to 500 nM and the Dmax lay in the range of 50 to 69%.
As to `Cc1cc(C(C(=O)N2C[C@H](O)C[C@H]2C(=O)N[C@@H](CCCCCN2CCC(c3ccc4c(c3)-n3c(nc(=O)c5c(Cl)cccc53)C4(C)C)CC2)c2ccc(-c3scnc3C)cc2)C(C)C)on1` (stereo partly drawn) [Compound B84, (2S,4R)-N-((S)-6-(4-(4-chloro-7,7-dimethyl-5-oxo-5,7-dihydroindolo[1,2-a]quinazolin-10-yl)piperidin-1-yl)-1-(4-(4-methylthiazol-5-yl)phenyl)hexyl)-4-hydroxy-1-(3-methyl-2-(3-methylisoxazol-5-yl)butanoyl)pyrrolidine-2-carboxamide], the DC50 on SMARCA4 and on SMARCA2 was less than 100 nM each time. In addition, the Dmax on SMARCA4 and at SMARCA2 was greater than 90% throughout.
With `Cc1ncsc1-c1ccc([C@H](CN2CCOCC2)NC(=O)[C@@H]2C[C@@H](O)CN2C(=O)[C@H](C(C)C)n2cc([C@H]3CC[C@H](CN4CCN(c5ccc6c(c5)-n5c(nc(=O)c7c(Cl)cccc75)C6(C)C)CC4)CC3)nn2)cc1` [Compound B129, (2S,4R)-1-((S)-2-(4-((1r,4S)-4-((4-(4-chloro-7,7-dimethyl-5-oxo-5,7-dihydroindolo[1,2-a]quinazolin-10-yl)piperazin-1-yl)methyl)cyclohexyl)-1H-1,2,3-triazol-1-yl)-3-methylbutanoyl)-4-hydroxy-N-((R)-1-(4-(4-methylthiazol-5-yl)phenyl)-2-morpholinoethyl)pyrrolidine-2-carboxamide], the DC50 at SMARCA4 and at SMARCA2 was less than 100 nM each time. In addition, the Dmax was 70 to 90% at SMARCA4 and greater than 90% at SMARCA2.
